Measurements: US12371428B2 (Exelixis, Inc., priority 2019, dated 2025)
Where a name gives a salt, the structure may show the parent alone. Read-outs that look alike come from different tables or passages of the source.

Legend:
Type in all cases: biochemical
[1] = molecular target: Human KDR (residues 790-1356) (Homo sapiens (Human), UniProt P35968); assay: Human KDR kinase assay, HTRF KinEase (Example B-2)
In short: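 Human KDR residues 790-1356 (0.1 ng/well) in buffer with 5 mM MgCl2, 1 mM MnCl2, 1 mM DTT, biotinylated peptide substrate, ATP at Km (4.0 μM), 3% DMSO, 10 compound concentrations; 40 min, room temperature. EDTA stop, streptavidin-XL665/Eu-TK antibody HTRF read 665/620 nm; 4-parameter IC50.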

[2] = molecular target: Human MER (residues 528-999) (Homo sapiens (Human), UniProt Q12866); assay: Human Mer kinase assay, HTRF KinEase (Example C-2)
Human MER (residues 528-999), sequence (Q12866 528-999): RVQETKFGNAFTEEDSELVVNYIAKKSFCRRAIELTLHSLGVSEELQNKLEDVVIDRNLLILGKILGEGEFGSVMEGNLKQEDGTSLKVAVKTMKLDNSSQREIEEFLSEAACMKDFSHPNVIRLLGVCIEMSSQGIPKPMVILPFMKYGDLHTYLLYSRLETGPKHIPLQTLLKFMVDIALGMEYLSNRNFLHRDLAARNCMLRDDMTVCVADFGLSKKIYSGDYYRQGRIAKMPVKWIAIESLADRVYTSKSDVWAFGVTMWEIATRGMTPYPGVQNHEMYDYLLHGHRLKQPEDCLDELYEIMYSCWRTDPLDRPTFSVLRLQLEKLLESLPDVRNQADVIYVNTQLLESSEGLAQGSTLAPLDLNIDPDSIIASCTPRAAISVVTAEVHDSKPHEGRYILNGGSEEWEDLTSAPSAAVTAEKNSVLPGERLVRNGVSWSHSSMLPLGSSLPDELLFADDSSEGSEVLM
In short: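 HTRF KinEase TK assay with MER 528-999 (1 ng/well) in enzymatic buffer plus 5 mM MgCl2 and 1 mM DTT, biotinylated peptide substrate and ATP at Km (40 μM), 3% DMSO final, 60 min at room temperature. Stopped with EDTA detection mix (SA-XL665, TK antibody-Eu3+), read at 665/620 nm after 60 min; IC50 from 10-point 4-parameter fit, normalized to DMSO and 1 μM reference.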

[3] = molecular target: Human MET (residues 956-1390) (Homo sapiens (Human), UniProt P08581); assay: Human Met kinase assay, HTRF KinEase (Example D-2); conditions: read-out: c-Met IC50
Human MET (residues 956-1390), sequence (P08581 956-1390): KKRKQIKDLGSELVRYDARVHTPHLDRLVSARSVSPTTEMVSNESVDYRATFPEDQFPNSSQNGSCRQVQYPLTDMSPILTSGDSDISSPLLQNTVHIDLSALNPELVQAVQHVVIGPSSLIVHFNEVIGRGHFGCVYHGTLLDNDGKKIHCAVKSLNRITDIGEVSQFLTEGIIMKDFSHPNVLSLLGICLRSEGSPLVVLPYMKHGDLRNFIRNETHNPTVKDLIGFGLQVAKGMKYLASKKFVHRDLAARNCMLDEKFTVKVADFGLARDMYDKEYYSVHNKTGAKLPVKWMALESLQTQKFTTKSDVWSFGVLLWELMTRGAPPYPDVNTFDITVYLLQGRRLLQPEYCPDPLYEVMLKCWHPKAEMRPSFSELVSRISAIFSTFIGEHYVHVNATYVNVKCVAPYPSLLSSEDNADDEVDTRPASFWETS
In short: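 HTRF KinEase assay on MET residues 956-1390 (0.1 ng/well) in buffer with 5 mM MgCl2, 1 mM DTT and 1 mM MnCl2, with biotinylated peptide substrate, ATP at Km, 10 compound concentrations and 3% DMSO final, run 40 min at room temperature. The […] signal was normalized to DMSO and to 1 μM reference compound, and IC50 came from a 4-parameter logistic fit.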

[4] = protocol of Example B-2 (other compounds)
[5] = protocol of Example C-2 (other compounds)
[6] = protocol of Example D-2 (other compounds)

Human KDR (residues 790-1356), sequence (P35968 790-1356): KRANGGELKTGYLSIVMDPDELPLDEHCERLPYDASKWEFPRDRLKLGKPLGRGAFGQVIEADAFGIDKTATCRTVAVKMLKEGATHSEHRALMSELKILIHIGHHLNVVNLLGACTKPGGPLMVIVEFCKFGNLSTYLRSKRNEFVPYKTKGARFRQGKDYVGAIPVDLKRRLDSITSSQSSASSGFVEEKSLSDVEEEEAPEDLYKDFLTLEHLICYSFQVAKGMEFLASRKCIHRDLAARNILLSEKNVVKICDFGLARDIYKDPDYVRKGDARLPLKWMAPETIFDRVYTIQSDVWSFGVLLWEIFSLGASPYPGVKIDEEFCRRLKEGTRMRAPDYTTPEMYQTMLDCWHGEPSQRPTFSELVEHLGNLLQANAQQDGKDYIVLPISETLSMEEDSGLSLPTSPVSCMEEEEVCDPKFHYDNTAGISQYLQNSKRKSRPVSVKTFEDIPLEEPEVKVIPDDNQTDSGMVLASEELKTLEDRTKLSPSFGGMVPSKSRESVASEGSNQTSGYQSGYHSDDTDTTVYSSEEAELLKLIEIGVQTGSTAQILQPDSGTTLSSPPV

SMILES	IC50 ([1]; protocol of Example B-2)	IC50 ([2]; protocol of Example C-2)	IC50 ([3]; protocol of Example D-2)	IC50 [1, 4]	IC50 [2, 5]	IC50 [3, 6]
Cc1ncc(C(=O)Nc2ccc(Oc3ccnc4cc(-c5cnn(C(F)F)c5)cnc34)c(F)c2)c(O)c1-c1ccc(F)cc1 [Compound 610, N-[4-[[7-[1-(Difluoromethyl)pyrazol-4-yl]-1,5-naphthyridin-4-yl]oxy]-3-fluorophenyl]-5-(4-fluorophenyl)-4-hydroxy-6-methylpyridine-3-carboxamide hydrochloride]	0.1 to 0.3 µM	< 0.1 µM	< 0.1 µM			
COc1cc2ncnc(Oc3ccc(NC(=O)c4cn(-c5cnn(C)c5)cc(-c5ccc(F)cc5)c4=O)cc3F)c2nc1OC [Compound 637, N-[4-(6,7-dimethoxyprido[3,2-d]pyrimidin-4-yl)oxy-3-fluorophenyl]-5-(4-fluorophenyl)-1-(1-methylpyrazol-4-yl)-4-oxopyridine-3-carboxamide]	> 0.3 µM	< 0.1 µM	< 0.1 µM			
CCn1cc(C(=O)Nc2ccc(Oc3ccnc4cc(OC)c(OC)nc34)cc2)c(=O)c(-c2ccc(F)cc2)c1C [Compound 168, N-[4-[(6,7-Dimethoxy-1,5-naphthyridin-4-yl)oxy]phenyl]-1-ethyl-5-(4-fluorophenyl)-6-methyl-4-oxopyridine-3-carboxamide]				0.1 to 0.3 µM	< 0.1 µM	< 0.1 µM
COc1cc2nccc(Oc3ccc(NC(=O)c4cnc(C)c(-c5ccc(F)cc5)c4O)cc3F)c2nc1OC [Compound 28, N-[4-[(6,7-Dimethoxy-1,5-naphthyridin-4-yl)oxy]-3-fluorophenyl]-5-(4-fluorophenyl)-4-hydroxy-6-methylpyridine-3-carboxamide]				< 0.1 µM	< 0.1 µM	< 0.1 µM
Cc1ncc(C(=O)Nc2ccc(Oc3ccnc4cnc(Cl)cc34)c(F)c2)c(O)c1-c1ccc(F)cc1 [Compound 641, N-[4-[(6-chloro-1,7-naphthyridin-4-yl)oxy]-3-fluorophenyl]-5-(4-fluorophenyl)-4-hydroxy-6-methylpyridine-3-carboxamide]	> 0.3 µM	< 0.1 µM	0.1 to 0.3 µM			
COCCOc1nc2c(Oc3ccc(NC(=O)c4cnc(C)c(-c5ccc(F)cc5C)c4O)cc3F)ccnc2cc1OC [Compound 144, N-[3-Fluoro-4-[[7-methoxy-6-(2-methoxyethoxy)-1,5-naphthyridin-4-yl]oxy]phenyl]-5-(4-fluoro-2-methylphenyl)-4-hydroxy-6-methylpyridine-3-carboxamide]				< 0.1 µM	< 0.1 µM	< 0.1 µM
COc1cc2c(Oc3ccc(NC(=O)c4cnc(C)c(-c5ccc(F)cc5)c4O)cc3)ccnc2cn1 [Compound 644, 5-(4-fluorophenyl)-4-hydroxy-N-[4-[(6-methoxy-1,7-naphthyridin-4-yl)oxy]phenyl]-6-methylpyridine-3-carboxamide]	0.1 to 0.3 µM	< 0.1 µM	< 0.1 µM			
Cc1nc2c(Oc3ccc(NC(=O)c4cn(C(C)C)c(C)c(-c5ccc(F)cc5)c4=O)cc3F)ccnc2cc1-c1cccnc1 [Compound 620, N-[3-Fluoro-4-[(6-methyl-7-pyridin-3-yl-1,5-naphthyridin-4-yl)oxy]phenyl]-5-(4-fluorophenyl)-6-methyl-4-oxo-1-propan-2-ylpyridine-3-carboxamide]	> 0.3 µM	< 0.1 µM	< 0.1 µM			
COc1cc2nccc(Oc3ccc(NC(=O)c4cnc(C)c(-c5ccc(F)cc5C)c4O)cc3)c2nc1OC [Compound 174, N-[4-[(6,7-Dimethoxy-1,5-naphthyridin-4-yl)oxy]phenyl]-5-(4-fluoro-2-methylphenyl)-4-hydroxy-6-methylpyridine-3-carboxamide]				< 0.1 µM	< 0.1 µM	< 0.1 µM
CCn1nc(C(=O)Nc2ccc(Oc3ccnc4cc(OC)c(OC)nc34)c(F)c2)c(=O)c(-c2ccc(F)cc2)c1C [Compound 568, N-[4-[(6,7-Dimethoxy-1,5-naphthyridin-4-yl)oxy]-3-fluorophenyl]-1-ethyl-5-(4-fluorophenyl)-6-methyl-4-oxopyridazine-3-carboxamide]	< 0.1 µM	< 0.1 µM	< 0.1 µM			
Cc1cc2c(Oc3ccc(NC(=O)c4cnc(C)c(-c5ccc(F)cc5)c4O)cc3F)ccnc2cn1 [Compound 645, N-[3-fluoro-4-[(6-methyl-1,7-naphthyridin-4-yl)oxy]phenyl]-5-(4-fluorophenyl)-4-hydroxy-6-methylpyridine-3-carboxamide]	< 0.1 µM	< 0.1 µM	< 0.1 µM			

Results, then the compound that gave them:

IC50 ([1]; protocol of Example B-2)	IC50 ([2]; protocol of Example C-2)	IC50 ([3]; protocol of Example D-2)	IC50 [1, 4]	IC50 [2, 5]	IC50 [3, 6]	SMILES
< 0.1 µM	< 0.1 µM	< 0.1 µM				Cc1ncc(C(=O)Nc2ccc(Oc3ccnc4cc(C(N)=O)cnc34)c(F)c2)c(O)c1-c1ccc(F)cc1 [Compound 577, 8-[2-Fluoro-4-[[5-(4-fluorophenyl)-4-hydroxy-6-methylpyridine-3-carbonyl]amino]phenoxy]-1,5-naphthyridine-3-carboxamide]
			0.1 to 0.3 µM	< 0.1 µM	< 0.1 µM	COc1ccc2nccc(Oc3ccc(NC(=O)c4cnc(C)c(-c5ccc(F)cc5)c4O)cc3F)c2n1 [Compound 172, N-[3-Fluoro-4-[(6-methoxy-1,5-naphthyridin-4-yl)oxy]phenyl]-5-(4-fluorophenyl)-4-hydroxy-6-methylpyridine-3-carboxamide]
			> 0.3 µM	< 0.1 µM	< 0.1 µM	COc1cc2nccc(Oc3ccc(NC(=O)c4cn(C(C)(C)C)c(C)c(-c5ccc(F)cc5)c4=O)cc3F)c2nc1OC [Compound 139, 1-tert-Butyl-N-[4-[(6,7-dimethoxy-1,5-naphthyridin-4-yl)oxy]-3-fluorophenyl]-5-(4-fluorophenyl)-6-methyl-4-oxopyridine-3-carboxamide]
			0.1 to 0.3 µM	< 0.1 µM	< 0.1 µM	COc1cnc2c(Oc3ccc(NC(=O)c4cn(OC)cc(-c5ccc(F)cc5)c4=O)cc3F)ccnc2c1 [Compound 128, N-[3-Fluoro-4-[(7-methoxy-1,5-naphthyridin-4-yl)oxy]phenyl]-5-(4-fluorophenyl)-1-methoxy-4-oxopyridine-3-carboxamide]
< 0.1 µM	< 0.1 µM	< 0.1 µM				COc1cc2ncnc(Oc3ccc(NC(=O)c4cn(C(C)C)cc(-c5ccc(F)cc5)c4=O)cc3F)c2nc1OC [Compound 636, N-[4-(6,7-dimethoxypyrido[3,2-d]pyrimidin-4-yl)oxy-3-fluorophenyl]-5-(4-fluorophenyl)-4-oxo-1-propan-2-ylpyridine-3-carboxamide]
			> 0.3 µM	0.1 to 0.3 µM	< 0.1 µM	COC(=O)c1cnc2c(Oc3ccc(NC(=O)c4cnc(C)c(-c5ccc(F)cc5)c4O)cc3F)ccnc2c1 [Compound 138, Methyl 8-[2-fluoro-4-[[5-(4-fluorophenyl)-4-hydroxy-6-methylpyridine-3-carbonyl]amino]phenoxy]-1,5-naphthyridine-3-carboxylate]
			> 0.3 µM	< 0.1 µM	< 0.1 µM	CCn1cc(C(=O)Nc2ccc(Oc3ccnc4cc(OC)cnc34)c(F)c2)c(=O)c(-c2ccc(F)cc2)c1 [Compound 170, 1-Ethyl-N-[3-fluoro-4-[(7-methoxy-1,5-naphthyridin-4-yl)oxy]phenyl]-5-(4-fluorophenyl)-4-oxopyridine-3-carboxamide]
< 0.1 µM	< 0.1 µM	< 0.1 µM				CCc1nc2c(Oc3ccc(NC(=O)c4cnc(C)c(-c5ccc(F)cc5)c4O)cc3F)ccnc2cc1OC [Compound 589, N-[4-[(6-Ethyl-7-methoxy-1,5-naphthyridin-4-yl)oxy]-3-fluorophenyl]-5-(4-fluorophenyl)-4-hydroxy-6-methylpyridine-3-carboxamide]
> 0.3 µM	< 0.1 µM	< 0.1 µM				COc1cc2nccc(Oc3ccc(NC(=O)c4cn(C(C)C)c(C)c(-c5ccc(F)cc5)c4=O)cc3F)c2nc1N [Compound 579, N-[4-[(6-Amino-7-methoxy-1,5-naphthyridin-4-yl)oxy]-3-fluorophenyl]-5-(4-fluorophenyl)-6-methyl-4-oxo-1-propan-2-ylpyridine-3-carboxamide]
			< 0.1 µM	< 0.1 µM	< 0.1 µM	COc1cc2nccc(Oc3ccc(NC(=O)c4cn(OC)cc(-c5ccc(F)cc5)c4=O)cc3F)c2nc1OC [Compound 126, N-[4-[(6,7-Dimethoxy-1,5-naphthyridin-4-yl)oxy]-3-fluorophenyl]-5-(4-fluorophenyl)-1-methoxy-4-oxopyridine-3-carboxamide]
			> 0.3 µM	< 0.1 µM	< 0.1 µM	COc1cc2nccc(Oc3ccc(NC(=O)c4cn(-c5cccnc5)cc(-c5ccc(F)cc5)c4=O)cc3F)c2nc1OC [Compound 125, N-[4-[(6,7-Dimethoxy-1,5-naphthyridin-4-yl)oxy]-3-fluorophenyl]-5-(4-fluorophenyl)-4-oxo-1-pyridin-3-ylpyridine-3-carboxamide]
